Measured values published in the supplement of paper PMC10307832.

Columns and labels:
Experiment in all cases: relative viability (nuclei count vs DMSO), 5 days (fraction); higher = more cells survive
Gemcitabine + Trametinib = compound: Nc1ccn([C@@H]2O[C@H](CO)[C@@H](O)C2(F)F)c(=O)n1 [Gemcitabine] + CC(=O)Nc1cccc(-n2c(=O)n(C3CC3)c(=O)c3c(Nc4ccc(I)cc4F)n(C)c(=O)c(C)c32)c1 [Trametinib] (partner 0.02 µM)
Summary of the method: (§1)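 Medians of duplicate plates are given as relative viability. That measure is the nuclei count in treated wells divided by the count in vehicle wells. Counts were taken on 4× images of lung cancer cell lines in 1536-well plates, 5 days after pin-tool dosing the day after seeding with one drug alone or a fixed anchor-drug dose plus five library-drug doses (not always all listed) in √10 steps.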

Gemcitabine + Phenformin = compound: Nc1ccn([C@@H]2O[C@H](CO)[C@@H](O)C2(F)F)c(=O)n1 [Gemcitabine] + N=C(N)NC(=N)NCCc1ccccc1 [Phenformin] (partner 250 µM)
Summary of the method: as §1

Gemcitabine + OSI-027 = compound: Nc1ccn([C@@H]2O[C@H](CO)[C@@H](O)C2(F)F)c(=O)n1 [Gemcitabine] + COc1cccc2cc(-c3nc([C@H]4CC[C@H](C(=O)O)CC4)n4ncnc(N)c34)[nH]c12 [OSI-027] (partner 0.5 µM)
Summary of the method: as §1

Gemcitabine = compound: Nc1ccn([C@@H]2O[C@H](CO)[C@@H](O)C2(F)F)c(=O)n1 [Gemcitabine]
Summary of the method: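 Lung cancer cell lines in 1536-well plates were exposed by pinning to five library-drug doses (not always all listed) √10 apart, following an overnight hold at 37 °C. MetaXpress counted Hoechst-stained nuclei from 4× images taken after 5 days without medium change. Viability is the median ratio of treated-well to vehicle-well nuclei across plates. Plates required control CV below 25% and at least one doubling.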

Work on 201T yielded a relative viability (Gemcitabine + Trametinib; first compound 0.001 µM) of 0.753, a relative viability (Gemcitabine + Trametinib; first compound 0.003162 µM) of 0.714 and a relative viability (Gemcitabine + Trametinib; first compound 0.01 µM) of 0.736. For the same cell line, the relative viability (Gemcitabine + Trametinib; first compound 0.03162 µM) was 0.691, the relative viability (Gemcitabine + Trametinib; first compound 0.1 µM) was 0.324 and the relative viability (Gemcitabine + Phenformin; first compound 0.001 µM) was 0.43. It also gave a relative viability (Gemcitabine + Phenformin; first compound 0.003162 µM) of 0.455, a relative viability (Gemcitabine + Phenformin; first compound 0.01 µM) of 0.427 and a relative viability (Gemcitabine + Phenformin; first compound 0.03162 µM) of 0.334. For the same cell line, the relative viability (Gemcitabine + Phenformin; first compound 0.1 µM) was 0.263, the relative viability (Gemcitabine + OSI-027; first compound 0.001 µM) was 0.653 and the relative viability (Gemcitabine + OSI-027; first compound 0.003162 µM) was 0.747. It also gave a relative viability (Gemcitabine + OSI-027; first compound 0.01 µM) of 0.122, a relative viability (Gemcitabine + OSI-027; first compound 0.03162 µM) of 0.146 and a relative viability (Gemcitabine + OSI-027; first compound 0.1 µM) of 0.114. For the same cell line, the relative viability (Gemcitabine; 0.001 µM) was 0.939, the relative viability (Gemcitabine; 0.003162 µM) was 0.958 and the relative viability (Gemcitabine; 0.01 µM) was 0.988. For the same cell line, the relative viability (Gemcitabine; 0.03162 µM) was 0.697 and the relative viability (Gemcitabine; 0.1 µM) was 0.482.
A549 gave a relative viability (Gemcitabine + Phenformin; first compound 0.001 µM) of 0.158, a relative viability (Gemcitabine + Phenformin; first compound 0.003162 µM) of 0.0726 and a relative viability (Gemcitabine + Phenformin; first compound 0.01 µM) of 0.0184. It also gave a relative viability (Gemcitabine + Phenformin; first compound 0.03162 µM) of 0.0201, a relative viability (Gemcitabine + Phenformin; first compound 0.1 µM) of 0.0216 and a relative viability (Gemcitabine; 0.001 µM) of 1.03. The relative viability (Gemcitabine; 0.003162 µM) was 0.894, the relative viability (Gemcitabine; 0.01 µM) was 0.0734 and the relative viability (Gemcitabine; 0.03162 µM) was 0.0244. The relative viability (Gemcitabine; 0.1 µM) was 0.0209.
Work on A-427 yielded a relative viability (Gemcitabine + Trametinib; first compound 0.001 µM) of 0.704, a relative viability (Gemcitabine + Trametinib; first compound 0.003162 µM) of 0.799 and a relative viability (Gemcitabine + Trametinib; first compound 0.01 µM) of 0.521. It also gave a relative viability (Gemcitabine + Trametinib; first compound 0.03162 µM) of 0.356, a relative viability (Gemcitabine + Trametinib; first compound 0.1 µM) of 0.223 and a relative viability (Gemcitabine + Phenformin; first compound 0.001 µM) of 0.328. The relative viability (Gemcitabine + Phenformin; first compound 0.003162 µM) was 0.273, the relative viability (Gemcitabine + Phenformin; first compound 0.01 µM) was 0.16 and the relative viability (Gemcitabine + Phenformin; first compound 0.03162 µM) was 0.178. For the same cell line, the relative viability (Gemcitabine + Phenformin; first compound 0.1 µM) was 0.117, the relative viability (Gemcitabine + OSI-027; first compound 0.001 µM) was 0.401 and the relative viability (Gemcitabine + OSI-027; first compound 0.003162 µM) was 0.338. It also gave a relative viability (Gemcitabine + OSI-027; first compound 0.01 µM) of 0.148, a relative viability (Gemcitabine + OSI-027; first compound 0.03162 µM) of 0.17 and a relative viability (Gemcitabine + OSI-027; first compound 0.1 µM) of 0.113. For the same cell line, the relative viability (Gemcitabine; 0.001 µM) was 0.96, the relative viability (Gemcitabine; 0.003162 µM) was 0.867 and the relative viability (Gemcitabine; 0.01 µM) was 0.584. For the same cell line, the relative viability (Gemcitabine; 0.03162 µM) was 0.293 and the relative viability (Gemcitabine; 0.1 µM) was 0.143.
For ABC-1, the relative viability (Gemcitabine + Phenformin; first compound 0.001 µM) was 0.197, the relative viability (Gemcitabine + Phenformin; first compound 0.01 µM) was 0.236 and the relative viability (Gemcitabine + Phenformin; first compound 0.03162 µM) was 0.186. The relative viability (Gemcitabine + Phenformin; first compound 0.1 µM) was 0.212, the relative viability (Gemcitabine + OSI-027; first compound 0.001 µM) was 0.364 and the relative viability (Gemcitabine + OSI-027; first compound 0.01 µM) was 0.218. It also gave a relative viability (Gemcitabine + OSI-027; first compound 0.03162 µM) of 0.252, a relative viability (Gemcitabine + OSI-027; first compound 0.1 µM) of 0.116 and a relative viability (Gemcitabine; 0.001 µM) of 0.965. It also gave a relative viability (Gemcitabine; 0.003162 µM) of 0.823, a relative viability (Gemcitabine; 0.01 µM) of 0.703 and a relative viability (Gemcitabine; 0.03162 µM) of 0.291. It also gave a relative viability (Gemcitabine; 0.1 µM) of 0.235.
BEN was tested, and the relative viability (Gemcitabine + Trametinib; first compound 0.001 µM) was 1.02, the relative viability (Gemcitabine + Trametinib; first compound 0.003162 µM) was 0.615 and the relative viability (Gemcitabine + Trametinib; first compound 0.01 µM) was 0.311. The relative viability (Gemcitabine + Trametinib; first compound 0.03162 µM) was 0.245, the relative viability (Gemcitabine + Trametinib; first compound 0.1 µM) was 0.226 and the relative viability (Gemcitabine + Phenformin; first compound 0.001 µM) was 0.262. For the same cell line, the relative viability (Gemcitabine + Phenformin; first compound 0.003162 µM) was 0.23, the relative viability (Gemcitabine + Phenformin; first compound 0.01 µM) was 0.243 and the relative viability (Gemcitabine + Phenformin; first compound 0.03162 µM) was 0.222. For the same cell line, the relative viability (Gemcitabine + Phenformin; first compound 0.1 µM) was 0.202, the relative viability (Gemcitabine + OSI-027; first compound 0.001 µM) was 0.299 and the relative viability (Gemcitabine + OSI-027; first compound 0.003162 µM) was 0.274. It also gave a relative viability (Gemcitabine + OSI-027; first compound 0.01 µM) of 0.174, a relative viability (Gemcitabine + OSI-027; first compound 0.03162 µM) of 0.167 and a relative viability (Gemcitabine + OSI-027; first compound 0.1 µM) of 0.167. It also gave a relative viability (Gemcitabine; 0.001 µM) of 0.973, a relative viability (Gemcitabine; 0.003162 µM) of 0.726 and a relative viability (Gemcitabine; 0.01 µM) of 0.282. For the same cell line, the relative viability (Gemcitabine; 0.03162 µM) was 0.152 and the relative viability (Gemcitabine; 0.1 µM) was 0.117.
CAL-12T showed a relative viability (Gemcitabine + Trametinib; first compound 0.001 µM) of 0.234, a relative viability (Gemcitabine + Trametinib; first compound 0.003162 µM) of 0.356 and a relative viability (Gemcitabine + Trametinib; first compound 0.01 µM) of 0.323. For the same cell line, the relative viability (Gemcitabine + Trametinib; first compound 0.03162 µM) was 0.223, the relative viability (Gemcitabine + Trametinib; first compound 0.1 µM) was 0.193 and the relative viability (Gemcitabine + Phenformin; first compound 0.001 µM) was 0.587. For the same cell line, the relative viability (Gemcitabine + Phenformin; first compound 0.003162 µM) was 0.335, the relative viability (Gemcitabine + Phenformin; first compound 0.01 µM) was 0.437 and the relative viability (Gemcitabine + Phenformin; first compound 0.03162 µM) was 0.226. For the same cell line, the relative viability (Gemcitabine + Phenformin; first compound 0.1 µM) was 0.122, the relative viability (Gemcitabine + OSI-027; first compound 0.001 µM) was 0.645 and the relative viability (Gemcitabine + OSI-027; first compound 0.003162 µM) was 0.47. It also gave a relative viability (Gemcitabine + OSI-027; first compound 0.01 µM) of 0.451, a relative viability (Gemcitabine + OSI-027; first compound 0.03162 µM) of 0.152 and a relative viability (Gemcitabine + OSI-027; first compound 0.1 µM) of 0.13. It also gave a relative viability (Gemcitabine; 0.001 µM) of 1.04, a relative viability (Gemcitabine; 0.003162 µM) of 0.935 and a relative viability (Gemcitabine; 0.01 µM) of 0.643. For the same cell line, the relative viability (Gemcitabine; 0.03162 µM) was 0.206 and the relative viability (Gemcitabine; 0.1 µM) was 0.14.
For COR-L23, the relative viability (Gemcitabine + Trametinib; first compound 0.001 µM) was 0.584, the relative viability (Gemcitabine + Trametinib; first compound 0.003162 µM) was 0.656 and the relative viability (Gemcitabine + Trametinib; first compound 0.01 µM) was 0.248. It also gave a relative viability (Gemcitabine + Trametinib; first compound 0.03162 µM) of 0.116, a relative viability (Gemcitabine + Trametinib; first compound 0.1 µM) of 0.099 and a relative viability (Gemcitabine + Phenformin; first compound 0.001 µM) of 0.432. It also gave a relative viability (Gemcitabine + Phenformin; first compound 0.003162 µM) of 0.368, a relative viability (Gemcitabine + Phenformin; first compound 0.01 µM) of 0.193 and a relative viability (Gemcitabine + Phenformin; first compound 0.03162 µM) of 0.1. The relative viability (Gemcitabine + Phenformin; first compound 0.1 µM) was 0.0829, the relative viability (Gemcitabine + OSI-027; first compound 0.001 µM) was 0.955 and the relative viability (Gemcitabine + OSI-027; first compound 0.003162 µM) was 0.627. For the same cell line, the relative viability (Gemcitabine + OSI-027; first compound 0.01 µM) was 0.264, the relative viability (Gemcitabine + OSI-027; first compound 0.03162 µM) was 0.0984 and the relative viability (Gemcitabine + OSI-027; first compound 0.1 µM) was 0.101. It also gave a relative viability (Gemcitabine; 0.001 µM) of 0.992, a relative viability (Gemcitabine; 0.003162 µM) of 0.941 and a relative viability (Gemcitabine; 0.01 µM) of 0.701. It also gave a relative viability (Gemcitabine; 0.03162 µM) of 0.117 and a relative viability (Gemcitabine; 0.1 µM) of 0.0953.
COR-L 105 was tested, and the relative viability (Gemcitabine + Trametinib; first compound 0.001 µM) was 0.418, the relative viability (Gemcitabine + Trametinib; first compound 0.003162 µM) was 0.463 and the relative viability (Gemcitabine + Trametinib; first compound 0.01 µM) was 0.364. For the same cell line, the relative viability (Gemcitabine + Trametinib; first compound 0.03162 µM) was 0.367, the relative viability (Gemcitabine + Trametinib; first compound 0.1 µM) was 0.345 and the relative viability (Gemcitabine + Phenformin; first compound 0.001 µM) was 0.563. It also gave a relative viability (Gemcitabine + Phenformin; first compound 0.003162 µM) of 0.48, a relative viability (Gemcitabine + Phenformin; first compound 0.01 µM) of 0.308 and a relative viability (Gemcitabine + Phenformin; first compound 0.03162 µM) of 0.271. The relative viability (Gemcitabine + Phenformin; first compound 0.1 µM) was 0.203, the relative viability (Gemcitabine + OSI-027; first compound 0.001 µM) was 0.763 and the relative viability (Gemcitabine + OSI-027; first compound 0.003162 µM) was 0.72. The relative viability (Gemcitabine + OSI-027; first compound 0.01 µM) was 0.311, the relative viability (Gemcitabine + OSI-027; first compound 0.03162 µM) was 0.295 and the relative viability (Gemcitabine + OSI-027; first compound 0.1 µM) was 0.226. For the same cell line, the relative viability (Gemcitabine; 0.001 µM) was 0.947, the relative viability (Gemcitabine; 0.003162 µM) was 0.934 and the relative viability (Gemcitabine; 0.01 µM) was 0.572. For the same cell line, the relative viability (Gemcitabine; 0.03162 µM) was 0.269 and the relative viability (Gemcitabine; 0.1 µM) was 0.234.
Calu-6 gave a relative viability (Gemcitabine; 0.001 µM) of 0.975, a relative viability (Gemcitabine; 0.003162 µM) of 0.649 and a relative viability (Gemcitabine; 0.01 µM) of 0.33. It also gave a relative viability (Gemcitabine; 0.03162 µM) of 0.147 and a relative viability (Gemcitabine; 0.1 µM) of 0.129.
